Test results published in patent publication US20160264616A1, “THERAPEUTIC COMPOUNDS AND METHODS” (priority 2015, published 2016).
“Also recorded” adds a separate entry of the source. Read-outs that look alike come from different tables or passages of the source.

Assays:
RGS17 [1] = target: T1, RGS17 (Homo sapiens, UniProt Q9UGC6); assay: Differential scanning fluorimetry (DSF) with RGS17; type: binding; conditions: 50 μM compound; for effect on RGS17 thermal stability (DSF): versus DMSO
T1 construct: This is the same RGS17 construct used in the high throughput screening campaign that is fully active despite the N-terminal truncation; made in house
T1 sequence (Q9UGC6 84-200 limits assumed): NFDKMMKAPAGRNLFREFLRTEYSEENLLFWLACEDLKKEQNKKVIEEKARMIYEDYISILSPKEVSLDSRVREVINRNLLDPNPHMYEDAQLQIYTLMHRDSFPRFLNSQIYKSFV
Protocol: Further evaluation of the compounds designated UI-5, UI-1590, UI-1907 and UI-1956 was conducted using Differential Scanning Fluorimetry (DSF). This method allows for the rapid measurement of protein stability based on the melting temperature (Tm) of the target protein that is bound by ligand. A shift of Tm indicates a change in protein stability to melting due to stabilization added by the small molecule binding to the target protein. The four compounds were incubated at 50 μM with RGS17 or Gαo in the presence of Sypro Orange. In aqueous solution the fluorescence emission from the dye is very weak. However, when the dye binds to hydrophobic regions of a protein a significant increase in florescence intensity is observed intensity (20). The hydrophobic parts of a native, fully folded, protein in solution are generally buried within the protein and therefore not accessible to the dye resulting in little fluorescence emission. When the protein unfolds the dye molecules can bind to the exposed hydrophobic regions of the proteins, resulting in increased fluorescence. […] UI-5, UI-1590 and UI-1956 shifted RGS17's Tm by 2.1° C., 1.4° C. and 1.0° C., respectively (FIG. 4B). These three compounds were further characterized for activity against RGS17.
Differential scanning fluorimetry experiments were carried out using white 384-well μltraAMP PCR plates (Sorenson BioSciences; Salt Lake City, Utah). All experiments were carried out as previously described by Phillips and Hernandez de la Pena.(55) In brief, a 1:2000 dilution of Sypro Orange was made by adding 1 μL of Sypro Orange to 2 mL of PBS at pH 7.5. First, 1.2 mg/mL protein was incubated with 50 μM of each compound at room temperature for 15 min in a 10 μL volume. Upon completion of the incubation, 110 μL of the Sypro Orange-PBS solution was added to each compound/protein mixture. This yielded a final volume of 120 μL containing 0.1 mg/mL protein. Finally, 20 μL of the Sypro Orange/compound/protein mix for each compound and RGS17 or Gαo proteins was added to four wells of the 384-well plate. The experiment was run on the Roche LightCycler 480 (Roche, Switzerland) using a two-step method. Starting with a 25° C. baseline step and a second step with a target temperature of 95° C. with continuous acquisition and set acquisition rate of 3 per ° C. All data was collected using the Roche LightCycler data acquisition ability and analyzed with Graphpad Prism 6.0, using first and second derivatives of the fluorescent melting curves.

[2] = target: T2, RGS17-accelerated Gαo GTPase activity (Homo sapiens, UniProt Q9UGC6); assay: Malachite green steady-state GTPase assay (RGS17 GAP activity); type: biochemical
T2 construct: This is the same RGS17 construct used in the high throughput screening campaign that is fully active despite the N-terminal truncation; made in house
T2 sequence (Q9UGC6 72-206 limits assumed): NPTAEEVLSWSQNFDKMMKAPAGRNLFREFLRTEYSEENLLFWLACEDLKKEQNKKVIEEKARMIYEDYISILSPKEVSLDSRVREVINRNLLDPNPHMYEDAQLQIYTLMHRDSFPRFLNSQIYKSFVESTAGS
Protocol: Next, the ability of the compounds to inhibit the “GAP” activity of RGS17 was examined. The compounds were tested using a previously described malachite green assay (18), which allows for the detection of free phosphate liberated during the enzymatic cleavage of GTP to GDP by G alpha subunits.
First, stock solutions of each of the 3 components of the developing solution were prepared according to Monroy et al (18). In brief, Compounds were seeded using a half-log dilution with the highest final concentration of compound at 100 μM down to 1 nM. […] A 4×GTP at 1.2 mM diluted in MGB, was used, with a final concentration of 300 μM. To terminate the reaction, 10 μL of a Developing Solution (DS) was 50:12.5:1 (malachite:molybdate:Tween-20) was added to each well using a Microlab Star liquid handling robot (Hamilton Robotics; Reno, Nev.), this achieved a final ratio 4:1 (sample:developing solution) absorbance was read at 642 nm.

RGS4 = RGS4 (Homo sapiens, UniProt P49798); assay: Selectivity versus RGS4; type: biochemical
Chain of RGS4 (P49798 whole entry, species assumed): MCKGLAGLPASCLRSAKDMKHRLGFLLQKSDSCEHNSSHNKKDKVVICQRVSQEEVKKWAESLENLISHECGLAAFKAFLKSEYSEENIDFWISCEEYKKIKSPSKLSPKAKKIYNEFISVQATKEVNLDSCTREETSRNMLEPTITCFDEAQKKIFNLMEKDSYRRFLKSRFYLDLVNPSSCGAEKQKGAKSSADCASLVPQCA
Protocol: Characterization of UI-5, UI-1590 and UI-1956 to determine mechanism of action focused initially on the determination of the potential irreversible modification of the RGS protein by the compounds. […] These compounds were tested for selectivity versus RGS4 which was chosen as a model protein due to its high level of sensitivity to thiol modification (18).

RGS17 [3] = target: T1, RGS17; assay: MALDI-TOF mass spectrometry for covalent adducts; conditions: two-fold molar excess of compound, one hour
Protocol: Matrix-assisted laser desorption ionization time of flight (MALDI-TOF) mass spectrometry was employed to evaluate if lead compounds were capable of covalently modifying RGS17's RGS homology domain. Covalent adducts on RGS17 were not detected with any compounds using two-fold molar excess of compound when incubated for one hour with RGS17ΔN (FIG. 8). For all samples, the only species that were observed were singly and doubly charged unmodified, intact protein with mass-to-charge ratios of […], respectively.
Following treatment with compound, buffer was exchanged for 25 mM ammonium bicarbonate using an Amicon Ultra 10K 0.5 mL centrifugal filtration device (Millipore, Billerica, Mass.). Intact protein molecular weight was then assessed by matrix-assisted laser desorption/ionization-time of flight (MALDI-TOF) mass spectrometry. This was accomplished using a Bruker ultrafleXtreme in the linear TOF mode, employing 384-well Anchor chip targets (Billerica, Mass.). MALDI matrix reagents sinapinic acid and alpha-Cyano-4-hydroxycinnamic acid, purchased from Bruker, were reconstituted to 5 mg/ml in a 1:1 solution of acetonitrile and aqueous 0.1% formic acid (Billerica, Mass.). Samples in ammonium bicarbonate were diluted to 5 μM in aqueous 0.1% formic acid and introduced to target as a 1:1 solution of protein sample to MALDI matrix buffer. After crystal drying, samples were desalted on the target plate using aqueous 0.1% TFA. The laser was configured to emit pulses at 200 Hz at an optimal wavelength of 355 nm, and input energy of 500 μJ/pulse was attenuated 80-90%. Mass scale was calibrated using horse heart myoglobin, and 2000 shots were acquired per spectra.

[4] = malachite green, n=3, read-out: IC50 for inhibition of RGS17 GAP activity

Structure (SMILES)	effect on RGS17 thermal stability (DSF) (RGS17 [1])	IC50 [2]	IC50 [2, 4]	shift of RGS17 Tm (RGS17 [1])	inhibition of RGS4 (RGS4)	selectivity RGS17 versus RGS4 (RGS4)	covalent adducts on RGS17 (RGS17 [3])
CC(C)=CCC[C@]1(C)C=Cc2c(O)c3c(c(CC=C(C)C)c2O1)O[C@]12C(=C[C@@H]4C[C@H]1C(C)(C)O[C@@]2(C/C=C(/C)C(=O)O)C4=O)C3=O [UI-1907]	alter the thermal stability of both RGS17 and Gαo; also recorded: bind both the RGS and G protein subunit in a non-specific manner						
CC1=C(O)C(=O)C=C2C1=CC=C1[C@@]2(C)CC[C@@]2(C)[C@@H]3C[C@](C)(C(=O)O)CC[C@]3(C)CC[C@]12C [UI-1590]	stabilize RGS17 against thermal denaturing	6 µM	6.36 µM	1.4 °C	inhibited both RGS-4 and RGS-17	more selective for RGS17	did not form adducts
C[n+]1cc2c3c(ccc2c2ccc4cc5c(cc4c21)OCO5)OCO3 [UI-5]	stabilize RGS17 against thermal denaturing		12 µM	2.1 °C	inhibited both RGS-4 and RGS-17	more selective for RGS17	did not form adducts
O=c1c(-c2cc(O)c(O)c(O)c2)coc2cc(O)c(O)c(O)c12 [UI-1956, 5,6,7-trihydroxy-3-(3,4,5-trihydroxyphenyl)-4H-chromen-4-one]	stabilize RGS17 against thermal denaturing		35 µM	1.0 °C		selective for RGS17	did not form adducts
